One may read the clearance as the volume of plasma or blood freed of the substance per unit of time. Low readings indicate inefficient removal, high ones efficient removal. For orientation: inhibition means the relative decrease from the control value, in per cent. In general, IC50 refers to the concentration that inhibits the measured activity by half. A low value points to higher potency. One may read the half-life as the time needed for the level to fall by half in the phase considered. A high value points to slow loss.

Consider 17 molecules from article PMC4292808 (Journal of Medicinal Chemistry, 2014).

In one data set the target is T1, MAP4K2 (Homo sapiens, UniProt Q12851).
T1 sequence (Q12851 1-820): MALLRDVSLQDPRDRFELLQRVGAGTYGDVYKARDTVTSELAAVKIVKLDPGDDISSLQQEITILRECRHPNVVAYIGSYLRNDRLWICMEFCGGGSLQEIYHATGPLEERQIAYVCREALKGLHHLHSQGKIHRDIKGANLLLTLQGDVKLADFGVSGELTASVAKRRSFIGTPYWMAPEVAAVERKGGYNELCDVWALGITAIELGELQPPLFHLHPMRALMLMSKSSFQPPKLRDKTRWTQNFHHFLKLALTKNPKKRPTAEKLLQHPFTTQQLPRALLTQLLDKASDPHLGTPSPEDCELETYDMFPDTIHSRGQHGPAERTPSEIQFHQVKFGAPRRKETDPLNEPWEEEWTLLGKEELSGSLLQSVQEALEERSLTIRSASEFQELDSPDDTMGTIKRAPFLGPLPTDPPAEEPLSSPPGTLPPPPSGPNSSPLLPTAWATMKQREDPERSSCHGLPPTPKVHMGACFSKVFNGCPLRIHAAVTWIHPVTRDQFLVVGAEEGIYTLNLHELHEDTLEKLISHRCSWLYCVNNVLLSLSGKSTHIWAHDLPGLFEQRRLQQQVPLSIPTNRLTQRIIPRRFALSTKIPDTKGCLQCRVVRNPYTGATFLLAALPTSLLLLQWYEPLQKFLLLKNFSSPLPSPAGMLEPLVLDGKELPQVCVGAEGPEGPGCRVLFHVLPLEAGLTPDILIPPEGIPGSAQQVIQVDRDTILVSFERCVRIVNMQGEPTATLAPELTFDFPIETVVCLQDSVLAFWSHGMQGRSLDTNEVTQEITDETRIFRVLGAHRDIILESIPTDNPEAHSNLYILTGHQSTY
As to the kind of experiment: KiNativ HUH7 lysate. It is filed as binding. As to conditions: in words.

Data set [1] deals with T2, TAK1 (Homo sapiens, UniProt O43318).
T2 sequence (O43318 1-606): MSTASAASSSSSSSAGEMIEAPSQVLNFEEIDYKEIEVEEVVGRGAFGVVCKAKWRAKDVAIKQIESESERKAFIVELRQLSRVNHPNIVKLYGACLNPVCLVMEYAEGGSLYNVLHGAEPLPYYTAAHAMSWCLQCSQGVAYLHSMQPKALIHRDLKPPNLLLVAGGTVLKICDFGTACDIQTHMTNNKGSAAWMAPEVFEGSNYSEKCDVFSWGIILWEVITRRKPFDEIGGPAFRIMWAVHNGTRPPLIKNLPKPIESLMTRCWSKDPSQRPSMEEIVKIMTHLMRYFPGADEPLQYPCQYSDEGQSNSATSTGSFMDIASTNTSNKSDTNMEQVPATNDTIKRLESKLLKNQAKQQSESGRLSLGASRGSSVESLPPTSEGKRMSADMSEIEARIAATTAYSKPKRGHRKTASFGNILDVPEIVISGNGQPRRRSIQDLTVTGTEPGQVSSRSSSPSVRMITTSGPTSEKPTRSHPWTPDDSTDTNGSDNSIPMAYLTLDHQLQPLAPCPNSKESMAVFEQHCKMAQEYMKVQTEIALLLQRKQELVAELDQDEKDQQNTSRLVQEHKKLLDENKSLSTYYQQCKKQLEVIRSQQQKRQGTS
Description: KiNativ HUH7 lysate. It is filed as binding. As to conditions: in words.

Data set [2] is described as follows: In vivo pharmacokinetic studies. As to conditions: male, Swiss albino, mouse, plasma, iv, 1 mg/kg.
Data set [3] concerns phosphorylation of IKKα/β and degradation of IκB-α in L929 cells. As to the kind of experiment: TNFα-induced NF-κB signaling, Western blot. The data set is classed as cell-based, mouse.
For another data set, the target named is p38α (Homo sapiens, UniProt Q16539). Description: SelectScreen enzymatic assay. The data set is classed as biochemical. As to conditions: KiNativ and enzymatic assays, in words.
p38α, sequence (Q16539 whole entry): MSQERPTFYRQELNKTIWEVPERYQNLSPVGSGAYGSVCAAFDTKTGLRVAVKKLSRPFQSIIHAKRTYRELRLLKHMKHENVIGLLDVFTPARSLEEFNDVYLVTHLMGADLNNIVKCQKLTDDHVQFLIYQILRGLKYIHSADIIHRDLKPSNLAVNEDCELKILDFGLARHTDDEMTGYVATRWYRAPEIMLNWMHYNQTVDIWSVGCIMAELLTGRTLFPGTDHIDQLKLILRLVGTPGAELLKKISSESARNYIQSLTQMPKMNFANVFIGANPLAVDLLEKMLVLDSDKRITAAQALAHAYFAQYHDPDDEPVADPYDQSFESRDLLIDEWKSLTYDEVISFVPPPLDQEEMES
Data set [4] concerns BCR-ABL-dependent Ba/F3 cells. Description: Ba/F3 cell proliferation assay. As to conditions: Mus musculus, BaF3, read-out: cell growth inhibition. The data set is classed as cell-based.
For data set [5], the system named is phosphorylation of p38 MAPK in TAK1-deficient MEFs. Description: IL-1 and TGFβ-induced signaling in TAK1-deficient MEFs, Western blot. It is filed as cell-based, mouse. As to conditions: 500 nM. A general note: A western blot detects proteins with antibodies after separation by electrophoresis.
Data set [6] relates to phosphorylation of p38 MAPK and SMAD2 in WT MEFs. The data set is classed as cell-based, mouse. As to conditions: WT and TAK1-deficient MEFs.
The test system of data set [7] is signaling in Gen2.2 cells. Description: CL097. The data set is classed as cell-based. As to conditions: human Gen2.2 cells, 1 μM, 1 h pretreatment.
For data set [8], the target named is T3, TAK1 (Homo sapiens, UniProt O43318).
T3 sequence (O43318 1-303 limits assumed): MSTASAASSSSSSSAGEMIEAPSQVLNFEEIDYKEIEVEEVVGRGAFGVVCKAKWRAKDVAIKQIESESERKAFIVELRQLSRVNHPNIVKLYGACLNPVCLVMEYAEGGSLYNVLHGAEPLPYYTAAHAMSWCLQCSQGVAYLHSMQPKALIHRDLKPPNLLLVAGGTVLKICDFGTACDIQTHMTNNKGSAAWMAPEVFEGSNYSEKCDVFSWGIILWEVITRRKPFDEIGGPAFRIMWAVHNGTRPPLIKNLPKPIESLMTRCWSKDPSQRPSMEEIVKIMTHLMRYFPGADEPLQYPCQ
As to the kind of experiment: biochemical.

For data set [9], the system named is phosphorylation of p105, p38 and JNK1/2 in MEFs. Description: IL-1α-induced signaling, Western blot. It is filed as cell-based, mouse. As to conditions: MEFs stimulated with IL-1α.
The subject of data set [10] is phosphorylation of p105, p38 and JNK1/2 in 293 IL-1R cells. As to the kind of experiment: IL-1α-induced signaling, Western blot. It is filed as cell-based. As to conditions: human 293 IL-1R cells stimulated with IL-1α.
[11] abbreviates: 100 nM, 30 min pretreatment, TNFα 5 min, Western blot.

For the molecule `CCN1CCN(Cc2ccc(NC(=O)c3ccc(C)c(Oc4ccnc(C(=O)NC)c4)c3)cc2C(F)(F)F)CC1` [Compound 9], the “activity against MAP4K2” value on MAP4K2 was “inactive”. For the same molecule, the “activity against TAK1” value at TAK1 [1] was “inactive”.

The molecule `CCN1CCN(Cc2ccc(NC(=O)c3ccc(C)c(Oc4ncnc5[nH]c(C)cc45)c3)cc2C(F)(F)F)CC1` [Compound 5] displayed a clearance at 24 h in [2] of 26.5 mL/min/kg.

Take `C[S+]([O-])c1ccc(-c2nc(-c3ccc(F)cc3)c(-c3ccncc3)[nH]2)cc1` (centres unmarked) [Compound 38, SB203580, reference compound]: the “effect on TNFα-induced phosphorylation of IKKα/β and degradation of IκB-α” value (“effect on TNFα-induced phosphorylation” for short) in data set [3] (setting [11]) is listed as “no effect”.

As for `CCN1CCN(Cc2ccc(NC(=O)c3cccc(/C=C/c4cnc5[nH]ccc5c4OC)c3)cc2C(F)(F)F)CC1` [Compound 24], the “activity against p38α” value at p38α was “inactive”.

Turning to `CCN1CCN(Cc2ccc(NC(=O)c3ccc(C)c(/C=C/c4cnc5[nH]ccc5c4OC)c3)cc2C(F)(F)F)CC1` [Compound 2, (E)-N-(4-((4-Ethylpiperazin-1-yl)methyl)-3-(trifluoromethyl)phenyl)-3-(2-(4-methoxy-1H-pyrrolo[2,3-b]pyridin-5-yl)vinyl)-4-methylbenzamide], in [4], the inhibition at 0.01 µM was more than 50%. Besides, in [3] (setting [11]), the “effect on TNFα-induced phosphorylation” value was “comparable cellular potency”.

In the case of `CCN1CCN(Cc2ccc(NC(=O)c3cccc(Oc4ccnc5[nH]ccc45)c3)cc2C(F)(F)F)CC1` [Compound 10], the inhibition at 0.01 µM in data set [4] was more than 50%.

`CCN1CCN(Cc2ccc(NC(=O)c3ccc(C)c(Oc4ncnc5[nH]ccc45)c3)cc2C(F)(F)F)CC1` [Compound 3] had a clearance at 24 h in [2] of 65.8 mL/min/kg.

As to `CCN1CCN(Cc2ccc(NC(=O)c3cccc(CCc4cnc5[nH]ccc5c4OC)c3)cc2C(F)(F)F)CC1` [Compound 23], the “activity against p38α” value at p38α was “inactive”.

For the molecule `CNc1cc(Oc2cc(C(=O)Nc3cc(N4CCN(C)CC4)cc(C(F)(F)F)c3)ccc2C)ncn1` [Compound 17], the “IL-1-induced phosphorylation of p38” value in data set [5] is reported as “complete inhibition”. For the same molecule, in data set [6], the “IL-1 and TGFβ-induced p38 MAPK phosphorylation” value is recorded as “dose-dependent inhibition”; the “TGFβ-induced phosphorylation of SMAD2” value is “did not inhibit”. For the same molecule, the “effect on TNFα-induced phosphorylation” value in data set [3] (setting [11]) is “no effect”. For the same molecule, in data set [3] (concentrations up to 1 μM), the “effect on TNFα-induced phosphorylation” value is given as “not very effective”.

For the molecule `COc1cc(O)c2c(c1)/C=C/C[C@H](O)[C@H](O)C(=O)/C=C\C[C@H](C)OC2=O` [Compound 37, 5Z-7-oxozeaenol, reference compound], the “TGFβ-induced phosphorylation of SMAD2” value in data set [6] is “inhibited phosphorylation of both p38 and SMAD2”.

As to `CNc1cc(Oc2cc(C(=O)Nc3cc(-n4cnc(C)c4)cc(C(F)(F)F)c3)ccc2C)ncn1` [Compound 16], the “IL-1-induced phosphorylation of p38” value in data set [5] is listed as “complete inhibition”. The CL097-induced signaling entry in [7] is on record as “not able to block”. Moreover, in data set [6], the “IL-1 and TGFβ-induced p38 MAPK phosphorylation” value is recorded as “dose-dependent inhibition”; the “TGFβ-induced phosphorylation of SMAD2” value is given as “did not inhibit”. Also, the “effect on TNFα-induced phosphorylation” value in data set [3] (setting [11]) is reported as “no effect”.

For `CCN1CCN(Cc2ccc(C(=O)Nc3ccc(C)c(Oc4ccnc5[nH]ccc45)c3)cc2C(F)(F)F)CC1` [Compound 11], the “effect on TNFα-induced phosphorylation” value in data set [3] (setting [11]) is given as “no effect”.

In the case of `Cc1cn(-c2cc(NC(=O)c3ccc(C)c(Oc4ccnc5[nH]ccc45)c3)cc(C(F)(F)F)c2)cn1` [Compound 12], the “effect on TNFα-induced phosphorylation” value in data set [3] (setting [11]) was “no effect”.

The molecule `CCN1CCN(Cc2ccc(NC(=O)c3ccc(C)c(Oc4ncnc5[nH]ncc45)c3)cc2C(F)(F)F)CC1` [Compound 4] showed a clearance at 24 h in data set [2] of 99.2 mL/min/kg.

Regarding `CCN1CCN(Cc2ccc(NC(=O)c3ccc(C)c(Oc4ccnc5[nH]ccc45)c3)cc2C(F)(F)F)CC1` [Compound 1, 3-((1H-Pyrrolo[2,3-b]pyridin-4-yl)oxy)-N-(4-((4-ethylpiperazin-1-yl)methyl)-3-(trifluoromethyl)phenyl)-4-methylbenzamide], the CL097-induced signaling entry in data set [7] was “blocked signaling”. The molecule further came in with an IC50 on TAK1 [8] of 15 nM. The same molecule gave a half-life in data set [2] of 120 min. In addition, the “phosphorylation levels of p105, p38 and JNK1/2” value in data set [9] and in [10] was “inhibited in a dose-dependent manner” in each case. Also, the “effect on TNFα-induced phosphorylation” value in [3] (setting [11]) is listed as “comparable cellular potency”.

`CCN1CCN(Cc2ccc(NC(=O)c3ccc(OC)c(Oc4ncnc5[nH]ccc45)c3)cc2C(F)(F)F)CC1` [S1]: the CL097-induced signaling entry in [7] was “only partially inhibited signaling”.

For the molecule `CNC(=O)c1ccc(C)c(-n2c(C)cc(OCc3ccc(F)cc3F)c(Br)c2=O)c1` [Compound 39, PH-797804, reference compound], the “effect on TNFα-induced phosphorylation” value in data set [3] (setting [11]) was “no effect”.
